Source: patent publication US11242337B2, “Compounds useful for treating gastrointestinal tract disorders” (Ardelyx, Inc., priority 2017, dated 2022)

Assays:
[1] = molecular target: T1, NHE3 (Homo sapiens, UniProt P48764); experiment: Cell-based assay of NHE-3 activity (pre-incubation inhibition), human; settings: human Preincubation
T1 construct: expressed in transfected cells
T1 sequence (P48764 26-834): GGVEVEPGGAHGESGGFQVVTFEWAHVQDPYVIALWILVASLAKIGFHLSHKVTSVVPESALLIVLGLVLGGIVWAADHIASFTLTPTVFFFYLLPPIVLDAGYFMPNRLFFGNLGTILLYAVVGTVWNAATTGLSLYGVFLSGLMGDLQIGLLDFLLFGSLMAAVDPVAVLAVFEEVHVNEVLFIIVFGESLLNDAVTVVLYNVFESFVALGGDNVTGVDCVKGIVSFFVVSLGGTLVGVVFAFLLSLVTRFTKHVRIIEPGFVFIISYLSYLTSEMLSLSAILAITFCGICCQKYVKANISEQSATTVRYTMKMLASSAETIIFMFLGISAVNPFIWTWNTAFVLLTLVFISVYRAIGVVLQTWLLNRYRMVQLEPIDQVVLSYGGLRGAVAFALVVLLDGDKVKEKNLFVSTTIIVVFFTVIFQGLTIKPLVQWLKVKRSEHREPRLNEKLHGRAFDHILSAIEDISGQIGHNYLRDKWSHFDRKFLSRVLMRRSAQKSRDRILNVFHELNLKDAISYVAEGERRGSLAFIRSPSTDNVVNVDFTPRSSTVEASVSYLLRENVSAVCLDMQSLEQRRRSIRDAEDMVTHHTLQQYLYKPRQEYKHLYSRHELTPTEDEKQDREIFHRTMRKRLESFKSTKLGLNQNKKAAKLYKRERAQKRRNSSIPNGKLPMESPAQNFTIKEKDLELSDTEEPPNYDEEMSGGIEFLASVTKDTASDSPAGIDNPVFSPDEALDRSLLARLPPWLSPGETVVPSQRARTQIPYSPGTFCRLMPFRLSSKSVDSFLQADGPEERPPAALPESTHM
T1 sequence (Q99653 2-195 partner limits assumed): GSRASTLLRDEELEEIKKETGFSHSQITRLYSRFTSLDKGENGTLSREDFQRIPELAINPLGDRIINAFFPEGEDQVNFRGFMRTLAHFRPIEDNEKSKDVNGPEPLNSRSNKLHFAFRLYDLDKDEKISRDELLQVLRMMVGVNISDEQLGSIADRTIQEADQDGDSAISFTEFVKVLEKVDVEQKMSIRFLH
Protocol: Rat and human NHE-3-mediated Na^+-dependent H^+ antiport was measured using a modification of the pH sensitive dye method originally reported by Paradiso (Proc. Natl. Acad. Sci. USA. (1984) 81(23): 7436-7440). PS120 fibroblasts stably expressing human NHE3 and NHERF2 were obtained from Mark Donowitz (Baltimore, Md.). Opossum kidney (OK) cells were obtained from the ATCC and propagated per their instructions. The rat NHE-3 gene (GenBank M85300) was introduced into OK cells via electroporation, and cells were seeded into 96 well plates and grown overnight. Medium was aspirated from the wells then incubated for 30 min at 37° C. with NH4Cl-HEPES buffer (20 mM NH4Cl, 80 mM NaCl, 50 mM HEPES, 5 mM KCl, 2 mM CaCl2, 1 mM MgCl2, pH 7.4) containing 5 μM BCECF-AM. Cells were washed once with Ammonium free, Na^+-free HEPES (100 mM choline, 50 mM HEPES, 10 mM glucose, 5 mM KCl, 2 mM CaCl2, 1 mM MgCl2, pH 7.4) and incubated in the same buffer for 10 minutes at room temperature to lower intracellular pH with 0-30 μM test compound. […] Changes in intracellular pH were monitored using a FLIPR Tetra® (Molecular Devices, Sunnyvale, Calif.) by excitation at λex 439 to 505 nm, and measuring BCECF fluorescence at λem 538 nm. The initial rate of the fluorescence ratio change was used as a measure of NHE-mediated Na^+/H^+ activity, and reported as the change in fluorescence ratio per minute.

[2] = molecular target: T1, NHE3; experiment: Cell-based assay of NHE-3 activity (persistent inhibition), human; settings: human Persistence, 60 min incubation then washout
Protocol: The ability of compounds to inhibit human and rat NHE-3-mediated Na^+ dependent H^+ antiport after application and washout was measured using a modification of the pH sensitive dye method described above. PS120 fibroblasts stably expressing human NHE3 and NHERF2 were obtained from Mark Donowitz (Baltimore, Md.). Opossum kidney (OK) cells were obtained from the ATCC and propagated per their instructions. The rat NHE-3 gene was introduced into OK cells via electroporation, and cells were seeded into 96 well plates and grown overnight. Medium was aspirated from the wells, cells were washed once with NaCl-HEPES buffer (100 mM NaCl, 50 mM HEPES, 10 mM glucose, 5 mM KCl, 2 mM CaCl2, 1 mM MgCl2, pH 7.4), then overlayed with NaCl-HEPES buffer containing 0-30 μM test compound. After a 60 min incubation at room temperature, the test drug containing buffer was aspirated from the cells. Following aspiration, cells were washed once with NaCl-HEPES buffer without drug, then incubated for 30 min at 37° C. with NH4Cl-HEPES buffer (20 mM NH4Cl, 80 mM NaCl, 50 mM HEPES, 5 mM KCl, 2 mM CaCl2, 1 mM MgCl2, pH 7.4) containing 5 μM BCECF-AM. Cells were washed once with Ammonium free, Na^+-free HEPES (100 mM choline, 50 mM HEPES, 10 mM glucose, 5 mM KCl, 2 mM CaCl2, 1 mM MgCl2, pH 7.4) and incubated in the same buffer for 10 minutes at room temperature to lower intracellular pH. NHE-3-mediated recovery of neutral intracellular pH was initiated (10 min after compound washout) by addition of Na-HEPES buffer. […] Changes in intracellular pH were monitored using a FLIPR Tetra® (Molecular Devices, Sunnyvale, Calif.) by excitation at λex 439 to 505 nm, and measuring BCECF fluorescence at λem 538 nm. The initial rate of the fluorescence ratio change was used as a measure of NHE-mediated Na^+/H^+ activity, and reported as the change in fluorescence ratio per minute.

SMILES	% inhibition [1]	pIC50 ([1]; 0-30 μM test compound)	% inhibition [2]	IC50 [2] [nM]	pIC50 [2]	IC50 ([1]; 0-30 μM test compound) [nM]
COc1cc(Cl)cc2c1C[C@H](N1CCC[C@@H](N)C1)[C@H]2Oc1ccc(S(=O)(=O)NCCOCCOCCNC(=O)NCCCCNC(=O)NCCOCCOCCNS(=O)(=O)c2ccc(O[C@H]3c4cc(Cl)cc(OC)c4C[C@@H]3N3CCC[C@@H](N)C3)c(C)c2)cc1C [Example 9, 3-[2-(2-[2-[(4-[[(1S,2S)-2-[(3R)-3-Aminopiperidin-1-yl]-6-chloro-4-methoxy-2,3-dihydro-1H-inden-1-yl]oxy]-3-methylbenzene)sulfonamido]ethoxy]ethoxy)ethyl]-1-[4-([[2-(2-[2-[(4-[[(1S,2S)-2-[(3R)-3-aminopiperidin-1-yl]-6-chloro-4-methoxy-2,3-dihydro-1H-inden-1-yl]oxy]-3-methylbenzene)sulfonamido]ethoxy]ethoxy)ethyl]carbamoyl]amino)butyl]urea bis(trifluoroacetic acid)]	A (NHE3 < 40%)	C (NHE3 pIC50 > 7)	B (40-70%)	100 to 1000	–	–
Cc1cc(Cl)cc2c1C[C@H](N1CCC[C@@H](N)C1)[C@H]2Oc1ccc(S(=O)(=O)NCCOCCOCCNC(=O)NCCCCNC(=O)NCCOCCOCCNS(=O)(=O)c2ccc(O[C@H]3c4cc(Cl)cc(C)c4C[C@@H]3N3CCC[C@@H](N)C3)c(F)c2)cc1F [Example 10, 3-[2-(2-[2-[(4-[[(1S,2S)-2-[(3R)-3-Aminopiperidin-1-yl]-6-chloro-4-methyl-2,3-dihydro-1H-inden-1-yl]oxy]-3-fluorobenzene)sulfonamido]ethoxy]ethoxy)ethyl]-1-[4-[[(2-(2-[2-[(4-[[(1S,2S)-2-[(3R)-3-aminopiperidin-1-yl]-6-chloro-4-methyl-2,3-dihydro-1H-inden-1-yl]oxy]-3-fluorobenzene)sulfonamido]ethoxy]ethoxy)ethyl]carbamoyl]amino)butyl]urea; bis(trifluoroacetic acid)]	B (40-70%)	–	C (>70%)	–	–	–
Cc1cc(Cl)cc2c1C[C@H](N(C)C)[C@H]2Oc1ccc(S(=O)(=O)NCCOCCOCCNC(=O)NCCCCNC(=O)NCCOCCOCCNS(=O)(=O)c2ccc(O[C@H]3c4cc(Cl)cc(C)c4C[C@@H]3N(C)C)cc2)cc1 [Example 11]	C (>70%)	C (NHE3 pIC50 > 7)	C (>70%)	–	C (NHE3 pIC50 > 7)	–
CN(C)[C@H]1Cc2c(C#N)cc(Cl)cc2[C@@H]1Oc1ccc(S(=O)(=O)NCCOCCOCCNC(=O)NCCCCNC(=O)NCCOCCOCCNS(=O)(=O)c2ccc(O[C@H]3c4cc(Cl)cc(C#N)c4C[C@@H]3N(C)C)cc2)cc1 [Example 12, 3-[2-(2-[2-[(4-[[(1S,2S)-6-Chloro-4-cyano-2-(dimethylamino)-2,3-dihydro-1H-inden-1-yl]oxy]benzene)sulfonamido]ethoxy]ethoxy)ethyl]-1-[4-([[2-(2-[2-[(4-[[(1S,2S)-6-chloro-4-cyano-2-(dimethylamino)-2,3-dihydro-1H-inden-1-yl]oxy]benzene)sulfonamido]ethoxy]ethoxy)ethyl]carbamoyl]amino)butyl]urea; bis(trifluoroacetic acid)]	A (NHE3 < 40%)	C (NHE3 pIC50 > 7)	B (40-70%)	100 to 1000	–	–
CN(C)[C@H]1Cc2c(cc(Cl)cc2C(F)(F)F)[C@@H]1Oc1ccc(S(=O)(=O)NCCOCCOCCNC(=O)NCCCCNC(=O)NCCOCCOCCNS(=O)(=O)c2ccc(O[C@H]3c4cc(Cl)cc(C(F)(F)F)c4C[C@@H]3N(C)C)cc2)cc1 [Example 13, 3-[2-(2-[2-[(4-[[(1S,2S)-6-Chloro-2-(dimethylamino)-4-(trifluoromethyl)-2,3-dihydro-1H-inden-1-yl]oxy]benzene)sulfonamido]ethoxy]ethoxy)ethyl]-1-[4-([[2-(2-[2-[(4-[[(1S,2S)-6-chloro-2-(dimethylamino)-4-(trifluoromethyl)-2,3-dihydro-1H-inden-1-yl]oxy]benzene)sulfonamido]ethoxy]ethoxy)ethyl]carbamoyl]amino)butyl]urea]	A (NHE3 < 40%)	–	A (NHE3 < 40%)	–	–	–
CN(C)[C@H]1Cc2c(OC(F)(F)F)cc(Cl)cc2[C@@H]1Oc1ccc(S(=O)(=O)NCCOCCOCCNC(=O)NCCCCNC(=O)NCCOCCOCCNS(=O)(=O)c2ccc(O[C@H]3c4cc(Cl)cc(OC(F)(F)F)c4C[C@@H]3N(C)C)cc2)cc1 [Example 14, 1-[2-(2-[2-[(4-[[(1S,2S)-6-Chloro-2-(dimethylamino)-4-(trifluoromethoxy)-2,3-dihydro-1H-inden-1-yl]oxy]benzene)sulfonamido]ethoxy]ethoxy)ethyl]-3-[4-([[2-(2-[2-[(4-[[(1S,2S)-6-chloro-2-(dimethylamino)-4-(trifluoromethoxy)-2,3-dihydro-1H-inden-1-yl]oxy]benzene)sulfonamido]ethoxy]ethoxy)ethyl]carbamoyl]amino)butyl]urea]	B (40-70%)	–	A (NHE3 < 40%)	–	–	–
COc1cc(Cl)cc2c1C[C@H](N(C)C)[C@H]2Oc1ccc(S(=O)(=O)NCCOCCOCCNC(=O)NCCCCNC(=O)NCCOCCOCCNS(=O)(=O)c2ccc(O[C@H]3c4cc(Cl)cc(OC)c4C[C@@H]3N(C)C)cc2)cc1 [Example 15, 3-[2-(2-[2-[(4-[[(1S,2S)-6-Chloro-2-(dimethylamino)-4-methoxy-2,3-dihydro-1H-inden-1-yl]oxy]benzene)sulfonamido]ethoxy]ethoxy)ethyl]-1-[4-([[2-(2-[2-[(4-[[(1S,2S)-6-chloro-2-(dimethylamino)-4-methoxy-2,3-dihydro-1H-inden-1-yl]oxy]benzene)sulfonamido]ethoxy]ethoxy)ethyl]carbamoyl]amino)butyl]urea; bis(trifluoroacetic acid)]	C (>70%)	–	A (NHE3 < 40%)	–	A (NHE3 pIC50 < 6)	100 to 1000
Cc1cc(S(=O)(=O)NCCOCCOCCNC(=O)NCCCCNC(=O)NCCOCCOCCNS(=O)(=O)c2ccc(O[C@H]3c4cc(Cl)cc(F)c4C[C@@H]3N(C)C)c(C)c2)ccc1O[C@H]1c2cc(Cl)cc(F)c2C[C@@H]1N(C)C [Example 16]	B (40-70%)	C (NHE3 pIC50 > 7)	B (40-70%)	–	C (NHE3 pIC50 > 7)	–
